Test results from the supplement of paper PMC10307832.

What was measured:
Experiment in all cases: relative viability (nuclei count vs DMSO), 5 days (fraction); higher = more cells survive
[1] = compound: C1CNCCC1C2=CC(=NN2)C3=CC=NC=C3 + Nc1ncn([C@H]2C[C@H](O)[C@@H](CO)O2)c(=O)n1 [Decitabine] (partner 2 µM)
Summary of the method: (§1)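 Lung cancer cell lines in 1536-well plates got either a single drug or a fixed anchor-drug dose together with five library-drug doses (not always all listed) in √10 steps, by pin tool, on the day after seeding. Nuclei were counted after 5 days, and relative viability is the treated-to-vehicle ratio of nuclei counts. Values are medians of duplicate plates.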

[2] = compound: C[C@@H](N)c1ccc(C(=O)Nc2ccnc3[nH]ccc23)cc1 + CC(C)C[C@H](NC(=O)[C@H](Cc1ccccc1)NC(=O)c1cnccn1)B(O)O [Bortezomib] (partner 0.002 µM)
Summary of the method: as §1

[3] = compound: C[C@@H](N)c1ccc(C(=O)Nc2ccnc3[nH]ccc23)cc1 + COc1cc2c(Oc3ccc(NC(=O)C4(C(=O)Nc5ccc(F)cc5)CC4)cc3F)ccnc2cc1OCCCN1CCOCC1 [Foretinib] (partner 0.25 µM)
Summary of the method: as §1

## HCC-78
[1]; first compound 0.08 µM
  relative viability: 0.677
[1]; first compound 2.53 µM
  relative viability: 0.637
[1]; first compound 8 µM
  relative viability: 0.743
[2]; first compound 0.04 µM
  relative viability: 0.504
[2]; first compound 0.1265 µM
  relative viability: 0.42
[2]; first compound 0.4 µM
  relative viability: 0.661
[2]; first compound 1.265 µM
  relative viability: 0.69
[2]; first compound 4 µM
  relative viability: 0.313
[3]; first compound 0.04 µM
  relative viability: 0.626
[3]; first compound 0.1265 µM
  relative viability: 0.573
[3]; first compound 0.4 µM
  relative viability: 0.623
[3]; first compound 1.265 µM
  relative viability: 0.771
[3]; first compound 4 µM
  relative viability: 0.693

## NCI-H2405
[1]; first compound 0.08 µM
  relative viability: 0.705
[1]; first compound 0.8 µM
  relative viability: 0.735
[1]; first compound 2.53 µM
  relative viability: 0.793
[1]; first compound 8 µM
  relative viability: 0.753
[2]; first compound 0.04 µM
  relative viability: 0.895
[2]; first compound 0.1265 µM
  relative viability: 0.973
[2]; first compound 0.4 µM
  relative viability: 0.903
[2]; first compound 1.265 µM
  relative viability: 0.274
[2]; first compound 4 µM
  relative viability: 0.491
[3]; first compound 0.04 µM
  relative viability: 1.12
[3]; first compound 0.1265 µM
  relative viability: 1.09
[3]; first compound 0.4 µM
  relative viability: 1.13
[3]; first compound 1.265 µM
  relative viability: 0.838
[3]; first compound 4 µM
  relative viability: 0.519

## HOP-62
[1]; first compound 0.08 µM
  relative viability: 0.226
[1]; first compound 0.8 µM
  relative viability: 0.234
[1]; first compound 2.53 µM
  relative viability: 0.205
[1]; first compound 8 µM
  relative viability: 0.201
[2]; first compound 0.04 µM
  relative viability: 0.983
[2]; first compound 0.1265 µM
  relative viability: 0.62
[2]; first compound 0.4 µM
  relative viability: 0.675
[2]; first compound 1.265 µM
  relative viability: 0.49
[2]; first compound 4 µM
  relative viability: 0.922
[3]; first compound 0.04 µM
  relative viability: 1.09
[3]; first compound 0.1265 µM
  relative viability: 1.05
[3]; first compound 0.4 µM
  relative viability: 1.03
[3]; first compound 1.265 µM
  relative viability: 1.16
[3]; first compound 4 µM
  relative viability: 0.982

## NCI-H650
[1]; first compound 0.08 µM
  relative viability: 0.284
[1]; first compound 0.8 µM
  relative viability: 0.322
[1]; first compound 2.53 µM
  relative viability: 0.341
[1]; first compound 8 µM
  relative viability: 0.303
[2]; first compound 0.04 µM
  relative viability: 0.586
[2]; first compound 0.1265 µM
  relative viability: 0.695
[2]; first compound 0.4 µM
  relative viability: 0.86
[2]; first compound 4 µM
  relative viability: 0.64
[3]; first compound 0.1265 µM
  relative viability: 0.991
[3]; first compound 0.4 µM
  relative viability: 1.03
[3]; first compound 1.265 µM
  relative viability: 0.899
[3]; first compound 4 µM
  relative viability: 0.712

## BEN
[1]; first compound 0.08 µM
  relative viability: 0.676
[1]; first compound 0.8 µM
  relative viability: 0.652
[1]; first compound 2.53 µM
  relative viability: 0.779
[1]; first compound 8 µM
  relative viability: 0.777
[2]; first compound 0.04 µM
  relative viability: 0.765
[2]; first compound 0.1265 µM
  relative viability: 0.736
[2]; first compound 0.4 µM
  relative viability: 0.875
[2]; first compound 1.265 µM
  relative viability: 0.909
[2]; first compound 4 µM
  relative viability: 0.457
[3]; first compound 0.04 µM
  relative viability: 0.331
[3]; first compound 0.1265 µM
  relative viability: 0.525
[3]; first compound 0.4 µM
  relative viability: 0.878
[3]; first compound 1.265 µM
  relative viability: 0.689
[3]; first compound 4 µM
  relative viability: 0.4

## SW 1573
[1]; first compound 0.8 µM
  relative viability: 0.471
[1]; first compound 2.53 µM
  relative viability: 0.711
[1]; first compound 8 µM
  relative viability: 0.76
[2]; first compound 0.04 µM
  relative viability: 1.08
[2]; first compound 0.1265 µM
  relative viability: 1.01
[2]; first compound 0.4 µM
  relative viability: 0.939
[2]; first compound 1.265 µM
  relative viability: 0.968
[2]; first compound 4 µM
  relative viability: 0.7
[3]; first compound 0.04 µM
  relative viability: 1.06
[3]; first compound 0.1265 µM
  relative viability: 0.964
[3]; first compound 0.4 µM
  relative viability: 1.19
[3]; first compound 1.265 µM
  relative viability: 0.93
[3]; first compound 4 µM
  relative viability: 0.849

## ChaGo-K-1
[1]; first compound 0.08 µM
  relative viability: 0.496
[1]; first compound 0.8 µM
  relative viability: 0.525
[1]; first compound 2.53 µM
  relative viability: 0.506
[1]; first compound 8 µM
  relative viability: 0.529
[2]; first compound 0.04 µM
  relative viability: 1.01
[2]; first compound 0.1265 µM
  relative viability: 1.07
[2]; first compound 0.4 µM
  relative viability: 1
[2]; first compound 4 µM
  relative viability: 0.734
[3]; first compound 0.04 µM
  relative viability: 0.93
[3]; first compound 0.1265 µM
  relative viability: 0.955
[3]; first compound 0.4 µM
  relative viability: 0.885
[3]; first compound 1.265 µM
  relative viability: 0.918
[3]; first compound 4 µM
  relative viability: 0.799

## NCI-H1755
[1]; first compound 0.08 µM
  relative viability: 0.712
[1]; first compound 0.8 µM
  relative viability: 0.717
[1]; first compound 2.53 µM
  relative viability: 0.692
[1]; first compound 8 µM
  relative viability: 0.641
[2]; first compound 0.04 µM
  relative viability: 0.929
[2]; first compound 0.1265 µM
  relative viability: 0.949
[2]; first compound 0.4 µM
  relative viability: 0.966
[2]; first compound 1.265 µM
  relative viability: 0.906
[2]; first compound 4 µM
  relative viability: 0.677
[3]; first compound 0.04 µM
  relative viability: 0.95
[3]; first compound 0.1265 µM
  relative viability: 0.96
[3]; first compound 0.4 µM
  relative viability: 0.901
[3]; first compound 1.265 µM
  relative viability: 0.903
[3]; first compound 4 µM
  relative viability: 0.664

## NCI-H2023
[1]; first compound 0.08 µM
  relative viability: 0.219
[1]; first compound 0.8 µM
  relative viability: 0.222
[1]; first compound 2.53 µM
  relative viability: 0.251
[1]; first compound 8 µM
  relative viability: 0.194
[2]; first compound 0.04 µM
  relative viability: 0.948
[2]; first compound 0.1265 µM
  relative viability: 0.925
[2]; first compound 0.4 µM
  relative viability: 1.1
[2]; first compound 1.265 µM
  relative viability: 0.421
[2]; first compound 4 µM
  relative viability: 0.953
[3]; first compound 0.04 µM
  relative viability: 0.965
[3]; first compound 0.1265 µM
  relative viability: 1.14
[3]; first compound 0.4 µM
  relative viability: 1.4
[3]; first compound 1.265 µM
  relative viability: 0.988
[3]; first compound 4 µM
  relative viability: 0.766

## LC-2-ad
[1]; first compound 0.08 µM
  relative viability: 0.682
[1]; first compound 0.8 µM
  relative viability: 0.791
[1]; first compound 2.53 µM
  relative viability: 0.868
[1]; first compound 8 µM
  relative viability: 0.789
[2]; first compound 0.04 µM
  relative viability: 1.06
[2]; first compound 0.1265 µM
  relative viability: 1.05
[2]; first compound 0.4 µM
  relative viability: 1.01
[2]; first compound 1.265 µM
  relative viability: 1.03
[2]; first compound 4 µM
  relative viability: 0.817
[3]; first compound 0.04 µM
  relative viability: 0.963
[3]; first compound 0.1265 µM
  relative viability: 0.867
[3]; first compound 0.4 µM
  relative viability: 0.873
[3]; first compound 4 µM
  relative viability: 0.661

## NCI-H1666
[1]; first compound 0.08 µM
  relative viability: 0.697
[1]; first compound 0.8 µM
  relative viability: 0.747
[1]; first compound 2.53 µM
  relative viability: 0.762
[1]; first compound 8 µM
  relative viability: 0.728
[2]; first compound 0.04 µM
  relative viability: 0.991
[2]; first compound 0.1265 µM
  relative viability: 1.12
[2]; first compound 0.4 µM
  relative viability: 1.04
[2]; first compound 1.265 µM
  relative viability: 0.984
[2]; first compound 4 µM
  relative viability: 0.932
[3]; first compound 0.04 µM
  relative viability: 0.859
[3]; first compound 0.1265 µM
  relative viability: 1.01
[3]; first compound 0.4 µM
  relative viability: 1.14
[3]; first compound 1.265 µM
  relative viability: 1.25
[3]; first compound 4 µM
  relative viability: 1.08
